The values that follow come from patent US20190315711A1 (eXIthera Pharmaceuticals, Inc., priority 2016, published 2019).

One data set addresses human Factor XIa (Homo sapiens, UniProt P03951). Put plainly: Factor XIa enzyme inhibition assay (dose response, fluorogenic AMC substrate). It counts as biochemical. The note with it: purified enzyme; substrate 50 μM, enzyme 0.25 nM; read-out: hFXIa IC50. Set-up: Enzyme: Factor XIa. The method, boiled down:
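Fluorogenic assay in 20 mM Hepes pH 7.4, 150 mM NaCl, 0.02% Tween 20 with 0.25 nM enzyme and 50 μM Glp-Pro-Arg-AMC (final). Fluorescence read every minute for 30 min at 30 °C after serial two-fold compound dilution; IC50 from four-parameter Hill fit of dose-response curves.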

Data set [1] in a line: Determination of bioavailability in a dog. It counts as in vivo. The note with it: plasma, male beagle dogs, IV 1 mg/kg vs oral gavage 5 mg/kg. The procedure: The following protocol was used to estimate the bioavailability of test compounds in a dog. Test compounds were formulated in vehicles compatible with intravenous and oral dosing. Test compounds were administered to male beagle dogs via an intravenous bolus at 1 mg/kg (1 mg/mL at a dose volume of 1 mL/kg) or via oral gavage at 5 mg/kg (1 mg/mL at a dose volume of 5 mL/kg). Blood samples were collected via the contralateral (to intravenous bolus) jugular vein or via other accessible vein, at various timepoints following administration out to 24 hours post dose. Plasma samples (EDTA) were obtained by centrifugation (2200×g for 10 minutes at 5° C.) and stored frozen ([…]) until analyzed for parent compound via LC/MS/MS. Pharmacokinetic parameters were estimated from the plasma concentration time data by standard non-compartmental methods utilizing standard analysis software. By comparing the area under the curve (AUC) for IV and PO administration estimates of oral bioavailability were determined.

human Factor XIa, sequence (P03951 388-625 limits assumed): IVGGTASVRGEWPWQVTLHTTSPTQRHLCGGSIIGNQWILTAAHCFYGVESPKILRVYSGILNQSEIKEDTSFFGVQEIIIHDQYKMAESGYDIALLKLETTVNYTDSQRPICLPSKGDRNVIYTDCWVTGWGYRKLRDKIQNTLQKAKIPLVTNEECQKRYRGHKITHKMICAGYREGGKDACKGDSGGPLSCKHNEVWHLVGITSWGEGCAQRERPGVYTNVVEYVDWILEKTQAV
human Factor XIa, sequence (P03951 19-387 partner limits assumed): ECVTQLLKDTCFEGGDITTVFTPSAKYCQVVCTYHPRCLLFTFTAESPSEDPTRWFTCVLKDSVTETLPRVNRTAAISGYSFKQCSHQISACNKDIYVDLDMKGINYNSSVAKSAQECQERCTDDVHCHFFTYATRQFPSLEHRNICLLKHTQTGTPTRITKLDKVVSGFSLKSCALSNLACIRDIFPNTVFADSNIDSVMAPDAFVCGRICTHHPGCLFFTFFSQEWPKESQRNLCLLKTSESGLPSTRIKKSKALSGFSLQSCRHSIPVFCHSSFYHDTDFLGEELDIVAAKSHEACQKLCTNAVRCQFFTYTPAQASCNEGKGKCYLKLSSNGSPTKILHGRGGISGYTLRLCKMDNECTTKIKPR

For `CC[C@@H](NC(=O)N1C(=O)[C@H](Cc2ccnc(N)c2)[C@H]1C(=O)N(C)c1ncncn1)c1ccccc1` [Compound 83], at human Factor XIa, the IC50 is under 10 nM.
Regarding `CC[C@@H](NC(=O)N1C(=O)[C@H](Cc2ccnc(N)c2)[C@H]1C(=O)N(C)c1ccncc1)c1cccc(Cl)c1` [Compound 90], the bioavailability in data set [1] is over 30%. On human Factor XIa, the IC50 is under 10 nM.
In turn, `CC[C@@H](NC(=O)N1C(=O)[C@H](Cc2ccnc(N)c2)[C@H]1C(=O)N(CC)c1ncccn1)C1CCCCC1` [Compound 39] had a bioavailability in data set [1] of at most 10%. In addition, at human Factor XIa, the IC50 was under 10 nM.
Taken in the same sequence, the figures for `CC[C@@H](NC(=O)N1C(=O)[C@H](Cc2ccnc(N)c2)[C@H]1C(=O)N(C)c1ncccn1)c1ccccc1` [Compound 84] were over 30% and under 10 nM.
The like results for `CC[C@@H](NC(=O)N1C(=O)[C@H](Cc2ccnc(N)c2)[C@H]1C(=O)N(C)c1ccncc1)c1cccc(C)c1` [Compound 87] were, in that order, over 30% and under 10 nM.
Regarding `CCC[C@@H](NC(=O)N1C(=O)[C@H](Cc2ccnc(N)c2)[C@H]1C(=O)N(C)c1ccncc1)c1ccccc1` [Compound 86], the IC50 at human Factor XIa was under 10 nM.
Same read-out and setting: the value for `CCC[C@@H](NC(=O)N1C(=O)[C@H](Cc2ccnc(N)c2)[C@H]1C(=O)N(C)c1ccccc1)C1CCCCC1` [Compound 50] was under 10 nM.
For `CC[C@@H](NC(=O)N1C(=O)[C@H](Cc2ccnc(N)c2)[C@H]1C(=O)N(C)c1ccncc1)c1cccnc1` [Compound 59], the bioavailability in data set [1] was in the range of 11 to 30%. Also, the IC50 at human Factor XIa was under 10 nM.
Consider `CN(C(=O)[C@@H]1[C@@H](Cc2ccnc(N)c2)C(=O)N1C(=O)N[C@@H](C1CC1)C(F)(F)F)c1ccncc1` [Compound 77], for which the IC50 on human Factor XIa lay within 10 to 100 nM.
The same measure, in the same setting: the value for `Cc1ccccc1N(C)C(=O)[C@@H]1[C@@H](Cc2ccnc(N)c2)C(=O)N1C(=O)N[C@@H](C1CCCCC1)C(F)(F)F` [Compound 15] was 10 to 100 nM.
In data set [1], `CC[C@@H](NC(=O)N1C(=O)[C@H](Cc2ccnc(N)c2)[C@H]1C(=O)N(C)c1ncccn1)c1cccnc1` [Compound 61] returned a bioavailability of at most 10%. The IC50 on human Factor XIa was under 10 nM.
As for `CC[C@@H](NC(=O)N1C(=O)[C@H](Cc2ccnc(N)c2)[C@H]1C(=O)N(C)c1ccncc1)c1cccc(OC)c1` [Compound 100], the IC50 at human Factor XIa is under 10 nM.
As to `CN(C(=O)[C@@H]1[C@@H](Cc2ccnc(N)c2)C(=O)N1C(=O)N[C@@H](C1CCCCC1)C(F)(F)F)c1ccncc1` [Compound 18], the IC50 at human Factor XIa was under 10 nM.
`CN(C(=O)[C@@H]1[C@@H](Cc2ccnc(N)c2)C(=O)N1C(=O)N[C@@H](C1CCCCC1)C(F)(F)F)c1cccc(F)c1` [Compound 22]: the IC50 on human Factor XIa is under 10 nM.
On the same count and under the same terms, with `CC[C@@H](NC(=O)N1C(=O)[C@H](Cc2ccnc(N)c2)[C@H]1C(=O)N(C)c1ncccn1)c1cccc(Cl)c1` [Compound 121] the figure was under 10 nM.
With `CC[C@@H](NC(=O)N1C(=O)[C@H](Cc2cc(C)nc(N)c2)[C@H]1C(=O)N(C)c1ccccc1)c1cccc(Cl)c1` [Compound 120], the IC50 at human Factor XIa is under 10 nM.
On the same count and under the same terms, the value for `CC[C@@H](NC(=O)N1C(=O)[C@H](Cc2ccnc(N)c2)[C@H]1C(=O)N(C)c1ccncc1)c1ccc(Cl)cc1` [Compound 89] was under 10 nM; that for `CC[C@@H](NC(=O)N1C(=O)[C@H](Cc2ccnc(N)c2)[C@H]1C(=O)N(C)c1ncncn1)C1CCCCC1` [Compound 81] was under 10 nM; that for `CC[C@@H](NC(=O)N1C(=O)[C@H](Cc2ccnc(N)c2)[C@H]1C(=O)N(C)c1ccncc1)c1cccc(C#N)c1` [Compound 99] was under 10 nM.
On the same count and under the same terms, the value for `CN(C(=O)[C@@H]1[C@@H](Cc2ccnc(N)c2)C(=O)N1C(=O)N[C@@H](C1CCCCC1)C(F)(F)F)c1cccnc1` [Compound 17] was 10 to 100 nM.
`CC[C@@H](NC(=O)N1C(=O)[C@H](Cc2ccnc(N)c2)[C@H]1C(=O)N(C)c1ccccc1)C1CCCCC1` [Compound 27] returned a bioavailability in data set [1] of over 30%. Besides, at human Factor XIa, the IC50 was under 10 nM.
As to `CC[C@@H](NC(=O)N1C(=O)[C@H](Cc2ccnc(N)c2)[C@H]1C(=O)N(C)c1ccccc1)C1CC1` [Compound 46], on human Factor XIa, the IC50 was in the range of 10 to 100 nM.
For `CC[C@@H](NC(=O)N1C(=O)[C@H](Cc2ccnc(N)c2)[C@H]1C(=O)N(C)c1ccncc1)c1ccccc1` [Compound 42], the bioavailability in data set [1] was over 30%. The IC50 on human Factor XIa is under 10 nM.
In data set [1], `CC[C@@H](NC(=O)N1C(=O)[C@H](Cc2ccnc(NC)c2)[C@H]1C(=O)N(C)c1ncccn1)C1CCCCC1` [Compound 80] came in with a bioavailability of over 30%. Further, the IC50 on human Factor XIa is under 10 nM.
The like results for `CN(C(=O)[C@@H]1[C@@H](Cc2ccnc(N)c2)C(=O)N1C(=O)N[C@@H](C1CCCCC1)C1CC1)c1ccccc1` [Compound 36] were, in that order, 11 to 30% and under 10 nM.
In the case of `CN(C(=O)[C@@H]1[C@@H](Cc2ccnc(N)c2)C(=O)N1C(=O)N[C@@H](C1CCCCC1)C(F)(F)F)c1cncnc1` [Compound 19], the IC50 on human Factor XIa is under 10 nM.
Take `CCN(C(=O)[C@@H]1[C@@H](Cc2ccnc(N)c2)C(=O)N1C(=O)N[C@@H](C1CCCCC1)C(F)(F)F)c1ccccc1` [Compound 24]: on human Factor XIa, the IC50 fell in the range of 10 to 100 nM.
The molecule `CC[C@@H](NC(=O)N1C(=O)[C@H](Cc2ccnc(N)c2)[C@H]1C(=O)N(C)c1ccncc1)C1CCCCC1` [Compound 25] came in with a bioavailability in data set [1] of 11 to 30%. Further, the IC50 on human Factor XIa was under 10 nM.
Regarding `CC[C@H](NC(=O)N1C(=O)[C@H](Cc2ccnc(N)c2)[C@H]1C(=O)N(C)c1ccncc1)c1ccccc1C` [Compound 97], the IC50 on human Factor XIa was under 10 nM.
The molecule `CN(C(=O)[C@@H]1[C@@H](Cc2ccnc(N)c2)C(=O)N1C(=O)N[C@@H](C1CCCCC1)C1CC1)c1ccncc1` [Compound 52] showed a bioavailability in data set [1] of at most 10%. The IC50 on human Factor XIa is under 10 nM.
`CC[C@@H](NC(=O)N1C(=O)[C@H](Cc2ccnc(NC(=O)OC(C)(C)C)c2)[C@H]1C(=O)N(C)c1ccncc1)c1cccc(Cl)c1` [Compound 127]: the half-maximal inhibitory concentration (IC50) on human Factor XIa is 10 to 100 nM.
Same read-out and setting: the value for `CN(C(=O)[C@@H]1[C@@H](Cc2ccnc(N)c2)C(=O)N1C(=O)N[C@@H](C1CC1)C(F)(F)F)c1ncccn1` [Compound 78] was 10 to 100 nM.
On the same count and under the same terms, the value for `CN(C(=O)[C@@H]1[C@@H](Cc2ccnc(N)c2)C(=O)N1C(=O)NC(c1ccccc1)c1ccccc1)c1ccncc1` [Compound 82] was under 10 nM.
For `CC[C@@H](NC(=O)N1C(=O)[C@H](Cc2cc(C)nc(N)c2)[C@H]1C(=O)N(C)c1ccccc1)C1CCCCC1` [Compound 91], the bioavailability in data set [1] is over 30%. Also, the IC50 on human Factor XIa was under 10 nM.
`CN(C(=O)[C@@H]1[C@@H](Cc2ccnc(N)c2)C(=O)N1C(=O)N[C@@H](C1CCCCC1)C(F)(F)F)c1ncccn1` [Compound 21] returned a bioavailability in data set [1] of at most 10%. Moreover, the IC50 at human Factor XIa was under 10 nM.
In the case of `CC[C@@H](NC(=O)N1C(=O)[C@H](Cc2ccnc(N)c2)[C@H]1C(=O)N(C)c1ccncc1)c1ccccc1Cl` [Compound 95], the IC50 on human Factor XIa was under 10 nM.
In the case of `C[C@@H](NC(=O)N1C(=O)[C@H](Cc2ccnc(N)c2)[C@H]1C(=O)N(C)c1ccccc1)C1CCCCC1` [Compound 49], the IC50 at human Factor XIa was under 10 nM.
On the same count and under the same terms, the value for `CC[C@@H](NC(=O)N1C(=O)[C@H](Cc2ccnc(N)c2)[C@H]1C(=O)N(C)c1ccccc1)c1cccnc1` [Compound 44] was under 10 nM.
